Measurements taken from paper PMC6499816, “Molecular determinants regulating selective binding of autophagy adapters and receptors to ATG8 proteins” (Nature Communications, 2019).
Like-named read-outs stand apart in the source and are kept apart here. Ends that are not written are not given here.

Tests used:
LC3A = molecular target: T1, LC3A (Homo sapiens, UniProt Q9H492); experiment: Bio-layer interferometry (BLI), LIR peptide binding to LC3A; conditions: read-out: Kd (best-fit value)
T1 construct: insertion of full-length human GABARAP, GABARAP-L1, LC3A, and LC3C, and EcoRI and NotI restrictions sites for cloning of LC3B and GABARAP-L2; GST (followed by 3C protease site) (N); made in house; host or cells: bacteria (E. coli BL21 (DE3) pLysS is stated for the GST-ATG8 proteins of the overlay assay)
Experimental: (§1) For recombinant protein expression in bacteria, a modified plasmid of pGEX-6P2 (GE Healthcare) (referred to as pAL) containing an N-terminal […] followed by a 3C protease cleavage site was used.
(§2) Expression was induced by the addition of 0.5 mM IPTG at OD600 = 0.6 and cells were incubated at 25 °C overnight or at 37 °C for 5 h. Harvested cells were lysed in 50 mM Tris-HCl, pH 8.0, 500 mM NaCl, 0.1% Triton X-100, 0.4 mM 4-(2-aminoethyl)-benzenesulfonylfluoride HCl (AEBSF), and 15 µg/ml benzamidine. Fusion protein was batch adsorbed onto Glutathione-Sepharose 4B beads (GE Healthcare). After five washes with wash buffer (50 mM Tris, pH 8.0, 250 mM NaCl, 0.4 mM AEBSF, and 15 µg/ml benzamidine), fusion proteins were eluted in 50 mM Tris, pH 8.0, 2 mM L-glutathione reduced, 0.4 mM AEBSF, and 15 µg/ml benzamidine.
(§3) The biosensor tip surface immobilized with a ligand is incubated with an analyte in solution, resulting in an increase in optical thickness at the biosensor tip and a wavelength shift, which is a direct measure of the change in thickness. […] Ligand-loaded SA biosensors were then incubated with different concentrations of ATG8. All binding experiments were performed in solid-black 96-well plates containing 200 μl of solution (25 mM Tris, pH 7.5, 150 mM NaCl, 0.5 mM TCEP, 0.1% Tween-20, 1 mg/ml bovine serum albumin (BSA)) in each well at 25 °C with an agitation speed of 1000 rpm. Each measurement was repeated two to five times.
(§4) Peptides were synthesized using FMOC (fluorenylmethoxycarbonyl) solid-phase peptide chemistry by the Francis Crick Peptide Chemistry Technology Platform and are listed in Supplementary Table 2.

LC3C = molecular target: T2, LC3C (Homo sapiens, UniProt Q9BXW4); experiment: BLI, LIR peptide binding to LC3C; conditions: read-out: Kd (best-fit value)
T2 construct: insertion of full-length human GABARAP, GABARAP-L1, LC3A, and LC3C, and EcoRI and NotI restrictions sites for cloning of LC3B and GABARAP-L2; GST (followed by 3C protease site) (N); made in house; host or cells: bacteria (E. coli BL21 (DE3) pLysS is stated for the GST-ATG8 proteins of the overlay assay)
Experimental: as §1, §2, §3, §4

LC3B = molecular target: T3, LC3B (Homo sapiens, UniProt Q9GZQ8); experiment: BLI, LIR peptide binding to LC3B; conditions: read-out: Kd (best-fit value)
T3 construct: insertion of full-length human GABARAP, GABARAP-L1, LC3A, and LC3C, and EcoRI and NotI restrictions sites for cloning of LC3B and GABARAP-L2; GST (followed by 3C protease site) (N); made in house; host or cells: bacteria (E. coli BL21 (DE3) pLysS is stated for the GST-ATG8 proteins of the overlay assay)
Experimental: as §1, §2
The biosensor tip surface immobilized with a ligand is incubated with an analyte in solution, resulting in an increase in optical thickness at the biosensor tip and a wavelength shift, which is a direct measure of the change in thickness. […] Ligand-loaded SA biosensors were then incubated with different concentrations of ATG8. […]

GABARAP = molecular target: T4, GABARAP (Homo sapiens, UniProt O95166); experiment: BLI, LIR peptide binding to GABARAP; conditions: n=2 independent experiments, read-out: Kd (best-fit value)
T4 construct: insertion of full-length human GABARAP, GABARAP-L1, LC3A, and LC3C, and EcoRI and NotI restrictions sites for cloning of LC3B and GABARAP-L2; GST (followed by 3C protease site) (N); made in house; host or cells: bacteria (E. coli BL21 (DE3) pLysS is stated for the GST-ATG8 proteins of the overlay assay)
Experimental: as §1, §2, §3, §4

GABARAPL1 = molecular target: T5, GABARAPL1 (Homo sapiens, UniProt Q9H0R8); experiment: BLI, LIR peptide binding to GABARAPL1
T5 construct: insertion of full-length human GABARAP, GABARAP-L1, LC3A, and LC3C, and EcoRI and NotI restrictions sites for cloning of LC3B and GABARAP-L2; GST (followed by 3C protease site) (N); made in house; host or cells: bacteria (E. coli BL21 (DE3) pLysS is stated for the GST-ATG8 proteins of the overlay assay)
Experimental: as §1, §2, §3, §4

GABARAPL2 = molecular target: T6, GABARAPL2 (Homo sapiens, UniProt P60520); experiment: BLI, LIR peptide binding to GABARAPL2; conditions: read-out: Kd (best-fit value)
T6 construct: insertion of full-length human GABARAP, GABARAP-L1, LC3A, and LC3C, and EcoRI and NotI restrictions sites for cloning of LC3B and GABARAP-L2; GST (followed by 3C protease site) (N); made in house; host or cells: bacteria (E. coli BL21 (DE3) pLysS is stated for the GST-ATG8 proteins of the overlay assay)
Experimental: as §1, §2, §3, §4

[1] = Fig. 4c, fit of response vs GABARAP concentration
[2] = Fig. 4c, fit of response vs GABARAPL1 concentration, n=2 independent experiments, read-out: Kd (best-fit value)
[3] = fit of response vs GABARAP concentration (μM)
[4] = fit of response vs GABARAPL1 concentration (μM), n=2 independent experiments, read-out: Kd (best-fit value)

T6 sequence (P60520 whole entry): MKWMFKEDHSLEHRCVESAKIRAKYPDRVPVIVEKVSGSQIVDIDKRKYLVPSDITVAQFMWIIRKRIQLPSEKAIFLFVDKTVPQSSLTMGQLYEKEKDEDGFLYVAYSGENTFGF
T2 sequence (Q9BXW4 whole entry): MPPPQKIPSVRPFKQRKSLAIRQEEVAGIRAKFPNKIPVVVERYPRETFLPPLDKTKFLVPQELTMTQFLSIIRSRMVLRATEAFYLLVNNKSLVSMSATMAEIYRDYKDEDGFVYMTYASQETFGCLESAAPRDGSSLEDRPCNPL
T4 sequence (O95166 whole entry): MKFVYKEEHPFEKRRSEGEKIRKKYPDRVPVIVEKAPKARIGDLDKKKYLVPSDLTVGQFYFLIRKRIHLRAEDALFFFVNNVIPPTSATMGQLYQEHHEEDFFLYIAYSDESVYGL
T5 sequence (Q9H0R8 whole entry): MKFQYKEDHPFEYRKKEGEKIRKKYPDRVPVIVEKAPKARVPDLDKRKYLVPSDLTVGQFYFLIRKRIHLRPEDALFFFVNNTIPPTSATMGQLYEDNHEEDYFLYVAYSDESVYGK

Compound | Kd (LC3A) [µM] | Kd (LC3C) [µM] | Kd (LC3B) [µM] | Kd (GABARAP; [1]) [µM] | Kd (GABARAPL1; [2]) [µM] | Kd (GABARAPL2) [µM] | Kd (GABARAP; [3]) [µM] | Kd (GABARAPL1; [4]) [µM] | Kd (GABARAPL1; immobilised biotinylated LIR peptide, pH 7.5, 25 °C, mean ± s.d., n = 2–4, pictures print no unit, µM as, read-out: Kd, LIR peptide to GABARAPL1) [µM]
YRPPDDAVFDIITDEELCQIQ [FYCO1 WT] | 0.778 | 3.04 | 1.13 | 1.73 | 0.9 | – | – | – | –
SQKSDEEDFDIIEDLPLKLTI [PCM1 V1956D/ K1957I/ V1958I] | 4.61 | 2.35 | – | 1.39 | 0.907 | – | – | – | –
SQKSDEEDFVKIEDLPLKLTI [PCM1 V1959I] | – | 6.94 | – | 1.46 | 1.07 | 7.58 | – | – | –
DDFVMVPAQFPGDLV [ULK1 (aa 355-369)] | – | 7.84 | – | – | – | 2.21 | 0.288 | 0.243 | –
CSCC[C@H](NC(=O)[C@@H](NC(=O)[C@H](Cc1ccccc1)NC(=O)[C@H](CC(=O)O)NC(=O)[C@H](CC(=O)O)NC(=O)[C@@H](NC(=O)[C@@H](N)CC(=O)O)[C@@H](C)O)C(C)C)C(=O)N[C@H](C(=O)N1CCC[C@H]1C(=O)N[C@@H](C)C(=O)N[C@@H](CCC(N)=O)C(=O)N[C@@H](Cc1ccccc1)C(=O)N1CCC[C@H]1C(=O)NCC(=O)N[C@@H](CC(=O)O)C(=O)N[C@@H](CC(C)C)C(=O)N[C@H](C(=O)O)C(C)C)C(C)C [ULK1 (aa 353-369)] | – | – | – | – | – | 0.583 | – | 0.102 | –
SQKSDEEDFVIVEDLPLKLTI [PCM1 K1967I] | 3.93 | 0.384 | – | – | 0.131 | – | – | – | –
SQKSDEEDFDKVEDLPLKLTI [PCM1 V1956D] | – | – | – | 7.72 | 5.19 | – | – | – | –
DSSCDTDDFVMVPAQF [ULK1 (aa 349-364)] | 8.37 | 2.23 | – | – | – | 0.534 | – | 0.161 | –
SQKSDEEDFVKVTDLPLKLTI [PCM1 E1959T] | – | – | – | – | 2.89 | – | – | – | –
DSSCDTDDFVMVPA [ULK1 (aa 349-362)] | 9.23 | 2.78 | – | – | – | 0.712 | 0.174 | 0.148 | –
DSSCDTDDFVMV [ULK1 (aa 349-360)] | 2.92 | 2.21 | 8.47 | – | – | 1.09 | 0.218 | 0.22 | –
SQKSDEEDFVKVEDLALKLTI [PCM1 P1962A] | – | 10.8 | – | 0.994 | 0.879 | 10.5 | – | – | –
SQKSDEEDFVKIEDLPLKLTI [Γ3] | – | – | – | – | – | – | – | – | 1.1 ± 0.1
